In patent US7718808B2, “Thiazole derivatives” (Kyowa Hakko Kirin Co., Ltd., priority 2003, dated 2010):

Experiments:
[1] = target: T1, Rat Adenosine A2A Receptor (Rattus norvegicus, UniProt P30543); experiment: Adenosine A2A receptor binding test (3H-CGS21680 binding, rat corpus striatum); details: test compound 10^−7 mol/L, 25° C., 120 minutes; for inhibition at 0.1 µM: read-out: Rat Adenosine A2A Receptor Binding Inhibition rate (%) (10^−7 mol/L)
T1 construct: tissue Nippon SLC (animals); host or cells: rat (SD) corpus striatum membrane homogenate
T1 sequence (P30543 whole entry): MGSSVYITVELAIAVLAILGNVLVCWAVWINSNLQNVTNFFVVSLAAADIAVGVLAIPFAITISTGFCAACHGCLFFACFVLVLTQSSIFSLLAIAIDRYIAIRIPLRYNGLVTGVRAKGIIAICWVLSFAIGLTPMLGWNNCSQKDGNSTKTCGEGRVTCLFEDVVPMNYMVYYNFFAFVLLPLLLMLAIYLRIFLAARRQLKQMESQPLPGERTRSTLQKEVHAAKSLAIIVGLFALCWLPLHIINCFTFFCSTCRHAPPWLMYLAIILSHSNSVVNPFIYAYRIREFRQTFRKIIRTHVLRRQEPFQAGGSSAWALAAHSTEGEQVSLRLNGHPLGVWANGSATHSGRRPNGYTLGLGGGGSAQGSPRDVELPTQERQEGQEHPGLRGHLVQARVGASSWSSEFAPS
Protocol: This test was carried but in a similar manner to a Bruns et al's method (Molecular Pharmacology, Vol. 29, p. 331, 1986).
Corpus striatum of rats (SD rat, by Nippon SLC) was suspended in 50 mL of an ice-cooled 50 mmol/L tris(hydroxymethyl)aminomethane hydrochloride (Tris-HCl) buffer (pH 7.7) using a polytron homogenizer (by Kinematica). The resulting homogenate was centrifuged (48,000×g, 20 minutes), and the resulting precipitate was again suspended by adding the same amount of a 50 mmol/L Tris-HCl buffer, followed by centrifugation under the same condition. The resulting final precipitate was suspended by adding a 50 mmol/L Tris-HCl buffer [containing 10 mmol/L magnesium chloride, adenosine deaminase 0.02 units/mg tissue (by Sigma)] so that the tissue concentration was 5 mg (wet weight)/mL.
To 100 μL of the above purified tissue suspension, were added 80 μL (final concentration […]) of tritium-labeled CGS-21680 {^3H-2-[p-(2-carboxyethyl)phenethylamino]-5′-(N-ethylcarboxamido)-adenosine: 40 curies/mmol; by New England Nuclear [The Journal of Pharmacology and Experimental Therapeutics, Vol. 251, p. 888, 1989]} and 20 μL of a test compound solution (10^−7 mol/L; a solution of a test compound in DMSO was diluted with Tris-HCl buffer). The resulting mixture was allowed to stand at 25° C. for 120 minutes, followed by rapid suction filtration through a glass fiber paper filter (GF/C; by Whatman). The filter was immediately washed three times with 200 μL of an ice-cooled 50 mmol/L Tris-HCl buffer. The glass fiber paper filter was transferred into a vial, Microscinti (by Perkin Elmer) was added thereto, and the radioactivity level was measured with Topcount (by Perkin Elmer).
The inhibition rate of the test compound to the adenosine A2A receptor binding (^3H-CGS21680 binding) was calculated according to the following formula.
Amount of total binding means the ^3H-CGS21680 binding radioactivity content in the absence of the test compound. Amount of non-specific binding means the ^3H-CGS21680 binding radioactivity content in the presence of 100 μmol/L cyclopentyladenosine (CPA; by Sigma). Amount of binding in the presence of test compound means the ^3H-CGS21680 binding radioactivity content in the presence of 10^−7 mol/L of the test compound.

Row | SMILES | inhibition at 0.1 µM [1] [%] | melting point [°C] | Rat Adenosine A2A Receptor Binding Inhibition rate (%) (10^−7 mol/L) [1]
1 | O=C(Nc1nc(-c2ccco2)c(-c2ccncc2)s1)C1CCCCC1 [Compound 4, N-[4-(2-Furyl)-5-(4-pyridyl)thiazol-2-yl]cyclohexanecarboxamide] | 95 | – | –
2 | O=C(Nc1nc(-c2ccco2)c(-c2ccncc2)s1)c1cccnc1 [Compound 5, N-[4-(2-Furyl)-5-(4-pyridyl)thiazol-2-yl]pyridine-3-carboxamide] | 100 | – | –
3 | O=C(Nc1nc(-c2ccco2)c(-c2ccncc2)s1)c1ccco1 [Compound 8, N-[4-(2-Furyl)-5-(4-pyridyl)thiazol-2-yl]furan-2-carboxamide] | 100 | – | –
4 | O=C(Nc1nc(-c2ccco2)c(-c2ccncc2)s1)c1ccoc1 [Compound 9, N-[4-(2-Furyl)-5-(4-pyridyl)thiazol-2-yl]furan-3-carboxamide] | 100 | – | –
5 | O=C(Nc1nc(-c2ccco2)c(-c2ccncc2)s1)c1ccc(O)nc1 [Compound 11, N-[4-(2-Furyl)-5-(4-pyridyl)thiazol-2-yl]-2-hydroxypyridine-5-carboxamide] | 100 | – | –
6 | O=C(Nc1nc(-c2ccco2)c(-c2ccncc2)s1)c1ccc(Cn2ccnc2)cc1 [Compound 19, N-[4-(2-Furyl)-5-(4-pyridyl)thiazol-2-yl]-4-(imidazol-1-ylmethyl)benzamide] | 90 | – | –
7 | O=C(Nc1nc(-c2ccco2)c(Cc2ccccc2)s1)c1ccncc1 [Compound 23, N-[5-Benzyl-4-(2-furyl)thiazol-2-yl]pyridine-4-carboxamide] | 85 | – | –
8 | CCOC(=O)c1sc(NC(=O)c2ccncc2)nc1-c1ccco1 [Compound 24, N-(5-(Ethoxycarbonyl)-4-(2-furyl)thiazol-2-yl]pyridine-4-carboxamide] | 88 | – | –
9 | CN1CCN(c2cc(C(=O)Nc3nc(-c4ccco4)c(N4CCOCC4)s3)ccn2)CC1 [Compound 41, N-[4-(2-Furyl)-5-morpholinothiazol-2-yl]-2-(4-methylpiperazin-1-yl)pyridine-4-carboxamide] | 92 | – | –
10 | CS(=O)(=O)c1ccc(N2CCC(C(=O)Nc3nc(-c4ccco4)c(N4CCOCC4)s3)CC2)nc1 [Compound 46, N-[4-(2-Furyl)-5-morpholinothiazol-2-yl]-1-[5-(methanesulfonyl)pyridin-2-yl]piperidine-4-carboxamide] | 95 | – | –
11 | O=C(Nc1nc(-c2ccco2)c(CN2CCSCC2)s1)c1ccncc1 [Compound 87, N-[4-(2-Furyl)-5-(thiomorpholinomethyl)thiazol-2-yl]pyridine-4-carboxamide] | 100 | – | –
12 | O=C(Nc1nc(-c2ccco2)c(CN2CCOCC2)s1)c1cccnc1 [Compound 94, N-[4-(2-Furyl)-5-(morpholinomethyl)thiazol-2-yl]pyridine-3-carboxamide] | 100 | – | –
13 | O=C(Nc1nc(-c2ccco2)c(C(=O)c2ccccc2)s1)c1ccncc1 [Compound 99, N-[5-Benzoyl-4-(2-furyl)thiazol-2-yl]pyridine-4-carboxamide] | 98 | – | –
14 | CC(C)n1nc(-c2sc(NC(=O)c3ccncc3)nc2-c2ccco2)ccc1=O [Compound 131, N-[4-(2-Furyl)-5-(1-isopropyl-6-oxo-1,6-dihydropyridazin-3-yl)thiazol-2-yl]pyridine-4-carboxamide] | 99 | 190 to 194 | –
15 | O=C(Nc1nc(-c2ccco2)c(C(=O)c2ccccc2)s1)c1ccc(=O)[nH]c1 [Compound 149, N-[5-Benzoyl-4-(2-furyl)thiazol-2-yl]-2-oxo-1,2-dihydropyridine-5-carboxamide] | 91 | > 300 | –
16 | O=C(Nc1nc(-c2ccco2)c(C(=O)c2ccc(F)cc2)s1)c1ccncc1 [Compound 170, N-[5-(4-Fluorobenzoyl)-4-(2-furyl)thiazol-2-yl]pyridine-4-carboxamide] | 87 | – | –
17 | O=C(Nc1nc(-c2ccco2)c(C(=O)c2ccccn2)s1)c1ccncc1 [Compound 187, N-[4-(2-Furyl)-5-(pyridin-2-ylcarbonyl)thiazol-2-yl]pyridine-4-carboxamide] | 86 | 218 to 227 | –

Row | SMILES | inhibition at 0.1 µM [1] [%] | melting point [°C] | Rat Adenosine A2A Receptor Binding Inhibition rate (%) (10^−7 mol/L) [1]
18 | O=C(c1ccccn1)c1sc(NC(=O)C2CC2)nc1-c1ccco1 [Compound 191, N-[4-(2-Furyl)-5-(pyridin-2-ylcarbonyl)thiazol-2-yl]cyclopropanecarboxamide] | 98 | 191 to 192 | –
19 | N#Cc1ccc(C(=O)Nc2nc(-c3ccco3)c(C(=O)c3ccccn3)s2)cc1 [Compound 206, 4-Cyano-N-[4-(2-furyl)-5-(pyridin-2-ylcarbonyl)thiazol-2-yl]benzamide] | 95 | 232 to 235 | –
20 | Cc1ncc(C(=O)Nc2nc(-c3ccco3)c(C(=O)c3ccccn3)s2)cn1 [Compound 228] | – | – | 84
21 | O=C(Nc1nc(-c2ccco2)c(C(=O)c2ccccn2)s1)c1ccco1 [Compound 234, N-[4-(2-Furyl)-5-(pyridin-2-ylcarbonyl)thiazol-2-yl]furan-2-carboxamide] | 100 | 184 to 185 | –
22 | COC(=O)Nc1nc(-c2ccco2)c(C(=O)c2ccccn2)s1 [Compound 249, Methyl N-[4-(2-furyl)-5-(pyridin-2-ylcarbonyl)thiazol-2-yl]carbamate] | 85 | – | –
23 | O=C(Nc1nc(-c2ccco2)c(C(=O)c2nccs2)s1)c1ccncc1 [Compound 348, N-[4-(2-Furyl)-5-(thiazol-2-ylcarbonyl)thiazol-2-yl]pyridine-4-carboxamide] | 100 | 228 to 240 | –
24 | O=C(Nc1nc(-c2ccco2)c(C(=O)C2CCCC2)s1)c1ccncc1 [Compound 431, N-[5-(Cycolopentylcarbonyl)-4-(2-furyl)thiazol-2-yl]-pyridine-4-carboxamide] | – | – | 98
25 | O=C(Nc1nc(-c2ccco2)c(C(=O)C2CCOCC2)s1)c1ccncc1 [Compound 455, N-[4-(2-Furyl)-5-(tetrahydropyran-4-ylcarbonyl)thiazol-2-yl]pyridine-4-carboxamide] | 100 | 202 to 209 | –
26 | O=C(Nc1nc(-c2ccco2)c(C(=O)C2CCOCC2)s1)C1CC1 [Compound 456, N-[4-(2-Furyl)-5-(tetrahydropyran-4-ylcarbonyl)thiazol-2-yl]cyclopropanecarboxamide] | 94 | 182 to 183 | –
27 | COc1cccc(C(=O)Nc2nc(-c3ccco3)c(C(=O)C3CCOCC3)s2)c1 [Compound 462, N-[4-(2-Furyl)-5-(tetrahydropyran-4-ylcarbonyl)thiazol-2-yl]-3-methoxybenzamide] | 99 | 198 to 200 | –
28 | O=C(Nc1nc(-c2ccco2)c(C(=O)C2CCOCC2)s1)c1ccc(F)cc1 [Compound 468, 4-Fluoro-N-[4-(2-furyl)-5-(tetrahydropyran-4-ylcarbonyl)thiazol-2-yl]benzamide] | 93 | 131 to 132 | –
29 | Cc1ccc(C(=O)Nc2nc(-c3ccco3)c(C(=O)C3CCOCC3)s2)cn1 [Compound 504, N-[4-(2-Furyl)-5-(tetrahydropyran-4-ylcarbonyl)thiazol-2-yl]-2-methylpyridine-5-carboxamide] | 100 | – | –
30 | O=C(CN1CCOCC1)Nc1nc(-c2ccco2)c(C(=O)C2CCOCC2)s1 [Compound 558, N-[4-(2-Furyl)-5-(tetrahydropyran-4-ylcarbonyl)thiazol-2-yl]-2-morpholinoacetamide] | 92 | – | –
31 | COc1cccc(C(=O)Nc2nc(-c3ccoc3)c(C(=O)C3CCOCC3)s2)c1 [Compound 619, N-[4-(3-Furyl)-5-(tetrahydropyran-4-ylcarbonyl)thiazol-2-yl]-3-methoxybenzamide] | – | 194 to 196 | –
32 | O=C(Nc1nc(-c2ccoc2)c(C(=O)C2CCOCC2)s1)c1ccc(F)cc1 [Compound 620, 4-Fluoro-N-[4-(3-furyl)-5-(tetrahydropyran-4-ylcarbonyl)thiazol-2-yl]benzamide] | – | 231 to 232 | –
33 | O=C(Nc1nc(-c2ccccn2)c(C(=O)c2ccccn2)s1)c1ccncc1 [Compound 631, N-[4-(2-Pyridyl)-5-(pyridin-2-ylcarbonyl)thiazol-2-yl]pyridine-4-carboxamide] | – | 232 to 234 | –
34 | O=C(Nc1nc(-c2ccccc2)c(C(=O)c2ccccn2)s1)c1ccncc1 [Compound 634, N-[4-Phenyl-5-(pyridin-2-ylcarbonyl)thiazol-2-yl]pyridine-4-carboxamide] | – | 231 to 235 | –
